Measurements reported in patent US20030212104A1, “Treatment of diabetes and diabetic complications with NHE-1 inhibitors” (Pfizer Inc., priority 2002, published 2003).

Tested on: diabetic ob/ob mice
Assay: Antidiabetic effect in diabetic ob/ob mice (plasma glucose, insulin, triglyceride)
Assay type: in vivo
Source text: Five to eight week old male C57BLU6J-ob/ob mice (obtained from Jackson Laboratory, Bar Harbor, Me.) are housed five per cage under standard animal care practices. After a one week acclimation period, the animals are weighed and 25 microliters of blood are collected from the retro-orbital sinus prior to any treatment. The blood sample is immediately diluted 1:5 with saline containing 0.025% sodium heparin, and held on ice for metabolite analysis. Animals are assigned to treatment groups so that each group has a similar mean for plasma glucose concentration. After group assignment, animals are dosed orally each day for four days with the vehicle consisting of either: (1) 0.25% w/v methyl cellulose in water without pH adjustment; or (2) 0.1% Pluronic® P105 Block Copolymer Surfactant (BASF Corporation, Parsippany, N.J.) in 0.1% saline without pH adjustment. On day 5, the animals are weighed again and then dosed orally with a test compound or the vehicle alone. All compounds are administered in vehicle consisting of either: (1) 0.25% w/v methyl cellulose in water; or 3) neat PEG 400 without pH adjustment; (2) 10% DMSO/O.1% Pluronic® in 0.1% saline without pH adjustment; or 3) neat PEG 400 without pH adjustment. The animals are then bled from the retro-orbital sinus three hours later for determination of blood metabolite levels. The freshly collected samples are centrifuged for two minutes at 10,000×g at room temperature. The supernatant is analyzed for glucose, for example, by the Abbott VP™ (Abbott Laboratories, Diagnostics Division, Irving, Tex.) and VP Super System® Autoanalyzer (Abbott Laboratories, Irving, Tex.), or by the Abbott Spectrum CCX™ (Abbott Laboratories, Irving, Tex.) using the A-Gent™ Glucose-UV Test reagent system (Abbott Laboratories, Irving, Tex.) (a modification of the method of Richterich and Dauwalder, Schweizerische Medizinische Wochenschrift, 101: 860 (1971)) (hexokinase method) using a 100 mg/dl standard. Plasma glucose is then calculated by the equation: Plasma glucose (mg/dl)=Sample value×8.14
where 8.14 is the dilution factor, adjusted for plasma hematocrit (assuming the hematocrit is 44%).
Hypoglycemic activity of the test compounds is determined by statistical analysis (unpaired t-test) of the mean plasma glucose concentration between the test compound group and vehicle-treated group on day 5. The above assay carried out with a range of doses of a test compound allows the determination of an approximate minimal effective dose (MED) value for the in vivo reduction of plasma glucose concentration.
Five to eight week old male C57BL/6J-ob/ob mice (obtained from Jackson Laboratory, Bar Harbor, Me.) are housed five per cage under standard animal care practices and fed standard rodent diet ad libitum. After a one week acclimation period, the animals are weighed and 25 microliters of blood are collected from the retro-orbital sinus prior to any treatment. The blood sample is immediately diluted 1:5 with saline containing 0.025% sodium heparin, and held on ice for plasma glucose analysis. Animals are assigned to treatment groups so that each group has a similar mean for plasma glucose concentration. The compound to be tested is administered by oral gavage as an about 0.02% to 2.0% solution (weight/volume (w/v)) in either (1) 10% DMSO/0.1% Pluronic® P105 Block Copolymer Surfactant (BASF Corporation, Parsippany, N.J.) in 0.1% saline without pH adjustment or (2) 0.25% w/v methylcellulose in water without pH adjustment. Alternatively, the compound to be tested can be administered by oral gavage dissolved in or in suspension in neat PEG 400. Single daily dosing (s.i.d.), twice daily dosing (b.i.d.) or other dosing regimen is maintained for 1 to, for example, 15 days. Control mice receive the 10% DMSO/0.1% Pluronic® P105 in 0.1 % saline without pH adjustment or the 0.25% w/v methylcellulose in water without pH adjustment, or the neat PEG 400 without pH adjustment. […]

[1] = Study 3 conclusion: diabetic ob/ob mice, 20 mg/kg bid for seven days
[2] = Study 1 conclusion: diabetic ob/ob mice, 20 mg/kg qd for five days

Q: For “[1-(2-trifluoromethyl-4-chlorophenyl)-5-cyclopropyl-1H-pyrazole-4-carbonyl]-guanidine”, which “Day 5, 3h post-dose plasma insulin concentration” value (Study 2: ob/ob mice n=10, 20 mg/kg bid for four days plus AM dose on fifth day, mean ± SD, vehicle control 10.0 ± 6.8) is on record?
A: The value was 11.1 ± 9.0 µg/L.

Q: And the “Day 5, 3h post-dose plasma glucose concentration” value (Study 2: ob/ob mice n=10, 20 mg/kg bid for four days plus AM dose on fifth day, mean ± SD, vehicle control 322 ± 72, p = 0.0003)?
A: Its value is 195 ± 50 mg/dL.

Q: And the “Plasma glucose concentration compared to the vehicle control group” value (Study 2 conclusion: diabetic ob/ob mice, 20 mg/kg bid for four days)?
A: The value was “significantly reduced”.

Q: What about the “Day 8, 3h post-dose plasma triglyceride concentration” value (Study 3: ob/ob mice n=15, 20 mg/kg bid for seven days plus AM dose on eighth day, mean ± SD, vehicle control 167 ± 44, p = 0.0002) of the same compound?
A: Its value is 107 ± 24 mg/dL.

Q: And the “Day 8, 3h post-dose plasma glucose concentration” value (Study 3: ob/ob mice n=15, 20 mg/kg bid for seven days plus AM dose on eighth day, mean ± SD, vehicle control 397 ± 134, p = 0.0001)?
A: Its value is 204 ± 69 mg/dL.

Q: And the “Plasma glucose concentration compared to the vehicle control group” value [1]?
A: Its value is “significantly reduced”.

Q: What about the “Plasma insulin concentration compared to the vehicle control group” value [1] of the same compound?
A: Its value is “significantly reduced”.

Q: What about the “Plasma triglyceride concentration compared to the vehicle control group” value [1] of the same compound?
A: Its value is “significantly reduced”.

Q: For `N=C(N)NC(=O)c1cnn(-c2cccc3ncccc23)c1C1CC1` [[5-cyclopropyl-1-(quinolin-5-yl)-1H-pyrazole-4-carbonyl]guanidine], which “Day 5, 3h post-dose plasma insulin concentration” value (Study 1: ob/ob mice n=10, 20 mg/kg qd for five days, mean ± SD, vehicle control 57.7 ± 24.5, p = 0.000331) is on record?
A: The value was 20.5 ± 10.3 µg/L.

Q: And the “Day 5, 3h post-dose plasma glucose concentration” value (Study 1: ob/ob mice n=10, 20 mg/kg qd for five days, mean ± SD, vehicle control 482 ± 139, p = 0.0498)?
A: The value was 371 ± 90 mg/dL.

Q: What about the “Plasma glucose concentration compared to the vehicle control group” value [2] of the same compound?
A: Its value is “significantly reduced”.

Q: What about the “Plasma insulin concentration compared to the vehicle control group” value [2] of the same compound?
A: The value was “significantly reduced”.
